Reference: patent US8722088B2, “Pharmaceutical compositions and methods for the treatment of prostate cancer” (Ferring International Center S.A., priority 2009, dated 2014)
“Also recorded” adds a separate entry of the source. Like-named read-outs stand apart in the source and are kept apart here. Where a SMILES comes first, the peptide text is derived from it. [ ]: non-standard residue; d: D form. The star is where a group is joined. dPhe(4-NHCONH2) = NC(=O)Nc1ccc(C[C@@H](N)C(=O)O)cc1; Dihydroorotyl(S) = O=C1C[C@@H](C(=O)*)NC(=O)N1; dPhe(4-Cl) = N[C@H](Cc1ccc(Cl)cc1)C(=O)O; Phe(4-NH2) = Nc1ccc(C[C@H](N)C(=O)O)cc1; d2Nal = N[C@H](Cc1ccc2ccccc2c1)C(=O)O; Lys(iPr) = CC(C)NCCCC[C@H](N)C(=O)O; d3Pal = N[C@H](Cc1cccnc1)C(=O)O

Legend:
clinical [1] = details: human, in vivo
Description: (§1) Throughout the ongoing degarelix development program, population pharmacokinetic/pharmacodynamic (PK/PD) modeling and simulations have been employed to get a better understanding of the PK and PD data, and the relationship between these and other parameters. […] Because of the variability in the population, it was considered that this median plasma concentration might not be sufficient to maintain long-term testosterone suppression in approximately 95% of the patients. It was therefore proposed that the dose administered should produce mean serum trough degarelix levels of >9 ng/ml or higher in the Phase 3 studies for the one-month dosing regimen program.

serum testosterone [2] = test: Previous studies, population PK/PD: proportion of patients with serum testosterone ≦0.5 ng/mL versus plasma degarelix concentration; type: in vivo, human
Description: as §1
The relationship between proportion of patients castrated [(T)≦0.5 ng/mL] and degarelix concentration after day 28 is illustrated in FIG. 1. FIG. 1 is based on data from 1473 prostate cancer patients in clinical studies by dividing PK levels into intervals 0-1, 1-2, 2-3 ng/mL and so forth and plotting observed proportions against PK interval midpoints together with a smoothing line with 95% confidence interval (CI). Based on this information, approximately 97% of the patients are castrated provided that degarelix concentrations stay above a threshold value of 9-10 ng/mL.

[3] = male, human, in vivo, sc
Procedure: (§2) The present study included a starting degarelix dose of 240 mg (with a concentration of 40 mg/mL of solvent), followed by maintenance doses of degarelix: i.e., 360 mg (with a concentration of 60 mg/mL of solvent) or 480 mg (with a concentration of 60 mg/mL of solvent), the latter administered at Months 1, 4, 7, and 10.
(§3) The study was open labeled and patients received a starting dose of 240 mg (with a concentration of 40 mg/mL of solvent) at Month 0 followed by one of two degarelix maintenance dose treatment regimens: 360 mg (with a concentration of 60 mg/mL of solvent) at Months 1, 4, 7, and 10; or 480 mg (with a concentration of 60 mg/mL of solvent) at Months 1, 4, 7, and 10.
(§4) The starting dose was administered subcutaneously as two injections of 120 mg (with a concentration of 40 mg/ml of solvent, given as 2×3 mL injections). After 28 days a maintenance dose of 360 mg (with a concentration of 60 mg/mL, given as 2×3 mL injections) or 480 mg (with a concentration of 60 mg/mL, given as 2×4 mL injections) was administered, also in two injections (each of 240 mg). Thereafter, with three monthly intervals, maintenance doses were given, again in the form of two injections. […] At each visit, serum testosterone, prostate specific androgen (PSA), and plasma concentration of degarelix were measured by techniques well known in the art.

PSA = test: Clinical trial CS18: PSA change from baseline; type: in vivo, human
Procedure: PSA is a commonly used marker in the diagnosis of prostate cancer and has more recently also been used to monitor response to treatment as well as disease recurrence and progression (Fleming et al. (2006) Nat. Clin. Pract. Oncol. 3: 658-68; Lilja, et al. (2008) Nat. Rev. Cancer 8: 268-78). In general, higher levels of PSA are associated with more severe forms of prostate cancer, with metastatic stage prostate cancer being associated with the highest level of PSA (e.g., >50 ng/mL). Accordingly, rising PSA levels in patients undergoing prostate cancer treatment are associated with incomplete or failed efficacy of the treatment. Here, there were further reductions in PSA after Month 1 and the median reductions were sustained throughout the study period (median reductions of 96-97%).

serum testosterone [4] = test: One-month dosing regimen clinical program: testosterone suppression to castrate level; type: in vivo, human; details: for testosterone response rate: Day 28 to Day 364
Procedure: Other studies establish that degarelix or pharmaceutically acceptable salt thereof at a dose of 240 mg (40 mg/mL) is an effective starting dose. […] With dosing at 0 months and an additional dosage at 1 month, it is believed that a steady state level is reached faster and this is (together with formulation, dose and concentration) a factor for consideration to obtain and maintain therapeutic levels in the patient. Use of a higher dose as the starting dose to have a ‘true’ 3 month depot is not feasible because of the combined requirements of a sufficient starting/loading phase release to allow buildup of degarelix plasma concentration; and at the same time sufficient long term release to achieve sufficiently high steady state concentration for 3 months. […] This is surprising given the high doses (and concentrations) of degarelix in the defined maintenance dose(s).

[5] = human, in vivo, 80 mg
clinical [6] = details: male, human, in vivo, sc
Procedure: as §2, §3, §4

clinical [7] = details: human, in vivo, 240 mg
Procedure: A three-month dosing regimen Phase 2 study investigated three different dosing regimens. After a starting dose of […] (with a concentration of 40 mg/mL of solvent), a further dose (i.e., maintenance dose) of 240 mg was given on Day 28, and then at Months 3, 6, and 9 or at Months 4, 7, and 10. Maintenance doses of 240 mg were evaluated initially at concentrations of 40 mg/mL and 60 mg/mL in this study, based on the observed results by different PK profiles of different concentrations. The patients were randomized in parallel to one of three different three-month maintenance dosing regimens of degarelix:
Thus, patients with lower degarelix plasma levels were more likely to have a testosterone level>0.5 ng/mL during the one year treatment period. […] This is consistent with the observation that for most patients, the time of first occurrence of a testosterone level>0.5 ng/mL was three months after a previous dose, at the time of trough degarelix plasma levels. The median trough degarelix plasma levels in the study ranged from about 6.5-7.5 ng/mL.

[8] = human, in vivo
Description: At the data cut-off date (i.e., seven months after commence of the clinical trial), 133 patients with prostate cancer were exposed to degarelix in the Phase 2, three-month dosing regimen clinical program (CS18).

For `CC(=O)N[C@H](Cc1ccc2ccccc2c1)C(=O)N[C@H](Cc1ccc(Cl)cc1)C(=O)N[C@H](Cc1cccnc1)C(=O)N[C@@H](CO)C(=O)N[C@@H](Cc1ccc(NC(=O)[C@@H]2CC(=O)NC(=O)N2)cc1)C(=O)N[C@H](Cc1ccc(NC(N)=O)cc1)C(=O)N[C@@H](CC(C)C)C(=O)N[C@@H](CCCCNC(C)C)C(=O)N1CCC[C@H]1C(=O)N[C@H](C)C(N)=O` [Degarelix, D-Alaninamide, N-acetyl-3-(2-naphthalenyl)-D-alanyl-4-chloro-D-phenylalanyl-3-(3-pyridinyl)-D-alanyl-L-seryl-4-[[[(4S)-hexahydro-2,6-dioxo-4-pyrimidinyl]carbonyl]amino]-L-phenylalanyl-4-[(aminocarbonyl)amino]-D-phenylalanyl-L leucyl-N6-(1-methylethyl)-L-lysyl-L-prolyl] (Ac-[d2Nal][dPhe(4-Cl)][d3Pal]S[Phe(4-NH2)](Dihydroorotyl(S))[dPhe(4-NHCONH2)]L[Lys(iPr)]P[dA]-NH2), the level at 672 h (clinical [1]) was 7.34 ng/mL, the level at 2016 h (clinical [1]) was 4.54 ng/mL and the “patients achieving serum testosterone ≦0.5 ng/mL” value (serum testosterone [2]; Day 28, median trough plasma degarelix 7.34 ng/mL) was 96%. The “patients having testosterone ≦0.5 ng/mL” value (serum testosterone [2]; Day 84, median plasma degarelix 4.54 ng/mL) was 83%, the “estimated median degarelix trough concentration” value ([3]; 360 mg) was “above 9 ng/mL” and the “estimated median degarelix trough concentration” value ([3]; 480 mg) was “above 9 ng/mL”. For the same molecule, the “PSA, Median % Change from Baseline” value (PSA; 360/60 mg, Day 28) was −83.8%, the “PSA, Median % Change from Baseline” value (PSA; 360/60 mg, Day 56) was −93.8% and the “PSA, Median % Change from Baseline” value (PSA; 360/60 mg, Day 84) was −95.0%. The “PSA, Median % Change from Baseline” value (PSA; 360/60 mg, Day 112) was −95.5%, the “PSA, Median % Change from Baseline” value (PSA; 360/60 mg, Day 140) was −96.2% and the “PSA, Median % Change from Baseline” value (PSA; 360/60 mg, Day 168) was −96.8%. For the same molecule, the “PSA, Median % Change from Baseline” value (PSA; 360/60 mg, Day 196) was −95.9%, the “PSA, Median % Change from Baseline” value (PSA; 360/60 mg, Day 224) was −96.4% and the “PSA, Median % Change from Baseline” value (PSA; 360/60 mg, Day 252) was −97.0%. For the same molecule, the “PSA, Median % Change from Baseline” value (PSA; 360/60 mg, Day 280) was −97.0%, the “PSA, Median % Change from Baseline” value (PSA; 360/60 mg, Day 308) was −97.3% and the “PSA, Median % Change from Baseline” value (PSA; 360/60 mg, Day 336) was −97.5%. For the same molecule, the “PSA, Median % Change from Baseline” value (PSA; 360/60 mg, Day 364) was −96.9%, the “PSA, Median % Change from Baseline” value (PSA; 360/60 mg, Last visit) was −96.9% and the “PSA, Median % Change from Baseline” value (PSA; 480/60 mg, Day 28) was −78.9%. The “PSA, Median % Change from Baseline” value (PSA; 480/60 mg, Day 56) was −90.9%, the “PSA, Median % Change from Baseline” value (PSA; 480/60 mg, Day 84) was −93.4% and the “PSA, Median % Change from Baseline” value (PSA; 480/60 mg, Day 112) was −95.3%. For the same molecule, the “PSA, Median % Change from Baseline” value (PSA; 480/60 mg, Day 140) was −95.5%, the “PSA, Median % Change from Baseline” value (PSA; 480/60 mg, Day 168) was −96.5% and the “PSA, Median % Change from Baseline” value (PSA; 480/60 mg, Day 196) was −96.2%. For the same molecule, the “PSA, Median % Change from Baseline” value (PSA; 480/60 mg, Day 224) was −96.6%, the “PSA, Median % Change from Baseline” value (PSA; 480/60 mg, Day 252) was −96.9% and the “PSA, Median % Change from Baseline” value (PSA; 480/60 mg, Day 280) was −96.5%. For the same molecule, the “PSA, Median % Change from Baseline” value (PSA; 480/60 mg, Day 308) was −97.0%, the “PSA, Median % Change from Baseline” value (PSA; 480/60 mg, Day 336) was −97.4% and the “PSA, Median % Change from Baseline” value (PSA; 480/60 mg, Day 364) was −97.1%. For the same molecule, the “PSA, Median % Change from Baseline” value (PSA; 480/60 mg, Last visit) was −96.5%, the “median reductions in PSA sustained throughout the study period” value (PSA; CS18, after Month 1) was 96-97% and the “PSA, Median % Change from Baseline” value (PSA; Total (both arms), Day 28) was −81.2%. The “PSA, Median % Change from Baseline” value (PSA; Total (both arms), Day 56) was −92.9%, the “PSA, Median % Change from Baseline” value (PSA; Total (both arms), Day 84) was −94.5% and the “PSA, Median % Change from Baseline” value (PSA; Total (both arms), Day 112) was −95.4%. For the same molecule, the “PSA, Median % Change from Baseline” value (PSA; Total (both arms), Day 140) was −95.9%, the “PSA, Median % Change from Baseline” value (PSA; Total (both arms), Day 168) was −96.6% and the “PSA, Median % Change from Baseline” value (PSA; Total (both arms), Day 196) was −96.2%. The “PSA, Median % Change from Baseline” value (PSA; Total (both arms), Day 224) was −96.5%, the “PSA, Median % Change from Baseline” value (PSA; Total (both arms), Day 252) was −96.9% and the “PSA, Median % Change from Baseline” value (PSA; Total (both arms), Day 280) was −97.0%. The “PSA, Median % Change from Baseline” value (PSA; Total (both arms), Day 308) was −97.2%, the “PSA, Median % Change from Baseline” value (PSA; Total (both arms), Day 336) was −97.4% and the “PSA, Median % Change from Baseline” value (PSA; Total (both arms), Day 364) was −96.9%. For the same molecule, the “PSA, Median % Change from Baseline” value (PSA; Total (both arms), Last visit) was −96.8%, the “sustained testosterone suppression for 3 months following an injection” value (serum testosterone [4]; doses of 240 mg, 160 mg or 80 mg) was “failed to sustain testosterone suppression for 3 months; also recorded: none of the doses tested in the one-month dosing regimen program could sustain testosterone suppression for 3 months” and the testosterone response rate (serum testosterone [4]; monthly maintenance 80 mg (20 mg/mL)) was 98%. For the same molecule, the testosterone response rate (serum testosterone [4]; monthly maintenance 160 mg (40 mg/mL)) was 100%, the “patients with testosterone suppressed to castrate level (T≦0.5 ng/mL)” value (serum testosterone [4]; starting dose 240 mg (40 mg/mL), first 28 days) was 95% and the “mean trough levels of degarelix” value [5] was “approximately 12 ng/mL”. The level at 1 year (clinical [6]; 360 mg) was about 10 ng/mL, the level at 1 year (clinical [6]; 480 mg) was about 13 ng/mL and the “estimated median degarelix trough concentration” value (clinical [7]) was under 9 ng/mL. The level at 1 year (clinical [7]) was about 7 ng/mL, the level at 3 months after a previous dose (clinical [7]) was 6.5 to 7.5 ng/mL and the “hepatotoxicity: impairment of liver function” value [8] was “do not show any clinically significant impairment of liver function”. The immediate anaphylactic reactions [8] was “no immediate anaphylactic reactions reported”, the “incidence of any injection site reaction” value [8] was 26% and the “injection site reactions of mild intensity” value [8] was 11%. The “injection site reactions of moderate intensity” value [8] was 11% and the “patients reporting severe injection site reactions” value [8] was 5%.
